In ChEMBL document CHEMBL1201862, “PubChem BioAssay data set” (2004):
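Five concentrations, 48 hours, 96-well plates. Here, GI50 denotes the concentration required for 50% inhibition of growth.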 Active and inactive are the calls of the source. Rule as the data show it: active = GI50 up to about 1.1 µM and inactive = higher.

Experiments:
Assay in all cases: NCI anticancer screen, dose series, 48 h
SNB-19 = tested on: SNB-19
Malme-3M = tested on: Malme-3M
A549 = tested on: A549
T47D = tested on: T47D
NCI-H522 = tested on: NCI-H522
SNB-75 = tested on: SNB-75
CCRF-CEM = tested on: CCRF-CEM
SN12C = tested on: SN12C
UACC-257 = tested on: UACC-257
NCI/ADR-RES = tested on: NCI/ADR-RES
BT-549 = tested on: BT-549
MDA-MB-435 = tested on: MDA-MB-435
NCI-H226 = tested on: NCI-H226
U-251 = tested on: U-251
A498 = tested on: A498
COLO 205 = tested on: COLO 205
ACHN = tested on: ACHN
Hs-578T = tested on: Hs-578T
EKVX = tested on: EKVX
SNB-78 = tested on: SNB-78

SMILES	GI50 (SNB-19)	GI50 (Malme-3M)	GI50 (A549)	GI50 (T47D)	GI50 (NCI-H522)	GI50 (SNB-75)	GI50 (CCRF-CEM)	GI50 (SN12C)	GI50 (UACC-257)	GI50 (NCI/ADR-RES)	GI50 (BT-549)	GI50 (MDA-MB-435)	GI50 (NCI-H226)	GI50 (U-251)	GI50 (A498)	GI50 (COLO 205)	GI50 (ACHN)	GI50 (Hs-578T)	GI50 (EKVX)	GI50 (SNB-78)
CC(=O)Nc1ccc(S(=O)(=O)/N=C2\C=CC(=O)c3ccccc32)cc1	11.6 µM (inactive)	3.65 µM (inactive)	9.98 µM (inactive)	8.17 µM (inactive)	14.5 µM (inactive)	5.4 µM (inactive)	3.37 µM (inactive)	4.92 µM (inactive)	6.22 µM (inactive)	5.9 µM (inactive)	12.1 µM (inactive)	1.84 µM (inactive)	5.97 µM (inactive)	5.81 µM (inactive)	10.3 µM (inactive)	13.3 µM (inactive)	7.35 µM (inactive)	7.64 µM (inactive)	6 µM (inactive)	
CC(=O)OC1CCC2(C)C(=CCC3C2CCC2(C)C3CC3OC4(CCC(C)CN4)C(C)C32)C1 (centres undefined)	> 100 µM (inactive)	> 100 µM (inactive)	> 100 µM (inactive)	> 100 µM (inactive)	> 100 µM (inactive)	> 100 µM (inactive)	> 100 µM (inactive)	> 100 µM (inactive)	> 100 µM (inactive)	> 100 µM (inactive)	> 100 µM (inactive)	> 100 µM (inactive)	> 100 µM (inactive)	> 100 µM (inactive)	> 100 µM (inactive)	> 100 µM (inactive)	> 100 µM (inactive)	> 100 µM (inactive)	> 100 µM (inactive)	
COc1ccc2cc(C(=O)CCC(=O)O)ccc2c1	> 100 µM (inactive)	> 100 µM (inactive)	> 100 µM (inactive)	> 100 µM (inactive)	> 100 µM (inactive)	50.1 µM (inactive)	> 100 µM (inactive)	> 100 µM (inactive)	> 100 µM (inactive)	> 100 µM (inactive)	> 100 µM (inactive)	> 100 µM (inactive)	> 100 µM (inactive)	> 100 µM (inactive)	> 100 µM (inactive)	> 100 µM (inactive)	> 100 µM (inactive)	> 100 µM (inactive)	> 100 µM (inactive)	
COCC(OC)C(CC=C(C#N)C#N)OC (centres undefined)	> 100 µM (inactive)	> 100 µM (inactive)	> 100 µM (inactive)		> 100 µM (inactive)		> 100 µM (inactive)	> 100 µM (inactive)	> 100 µM (inactive)					> 100 µM (inactive)	> 100 µM (inactive)	> 100 µM (inactive)	> 100 µM (inactive)		> 100 µM (inactive)	> 100 µM (inactive)
CCCCOc1ccc(NC(=N)Nc2ccc(Cl)cc2)cc1	2.74 µM (inactive)	3.47 µM (inactive)	0.741 µM (active)	0.474 µM (active)	5.86 µM (inactive)	4.47 µM (inactive)	0.251 µM (active)	0.791 µM (active)	0.176 µM (active)	2.28 µM (inactive)	9.57 µM (inactive)	11.1 µM (inactive)	12.7 µM (inactive)	9.68 µM (inactive)	0.443 µM (active)	0.125 µM (active)	0.462 µM (active)	5.5 µM (inactive)	2.37 µM (inactive)	
NC(=O)c1ccc2c(c1)S(=O)(=O)c1ccccc1C2=O	> 100 µM (inactive)	> 100 µM (inactive)	> 100 µM (inactive)	> 100 µM (inactive)	> 100 µM (inactive)	46.8 µM (inactive)	> 100 µM (inactive)	> 100 µM (inactive)	> 100 µM (inactive)	> 100 µM (inactive)	> 100 µM (inactive)	> 100 µM (inactive)	> 100 µM (inactive)	73.3 µM (inactive)	> 100 µM (inactive)	> 100 µM (inactive)	> 100 µM (inactive)	58.6 µM (inactive)	10 µM (inactive)	
N#Cc1ccc(/C=[N+](/C=c2ccc(=C=[N-])cc2)N(CCO)C2=NCCN2)cc1	> 100 µM (inactive)	> 100 µM (inactive)	> 100 µM (inactive)	> 100 µM (inactive)	71 µM (inactive)	> 100 µM (inactive)	> 100 µM (inactive)	> 100 µM (inactive)	> 100 µM (inactive)	> 100 µM (inactive)	> 100 µM (inactive)	> 100 µM (inactive)	> 100 µM (inactive)	> 100 µM (inactive)	> 100 µM (inactive)	> 100 µM (inactive)	> 100 µM (inactive)	> 100 µM (inactive)	> 100 µM (inactive)	
O=C(O)/C(Cc1c[nH]nn1)=N\O	> 100 µM (inactive)	> 100 µM (inactive)	> 100 µM (inactive)	> 100 µM (inactive)	> 100 µM (inactive)	> 100 µM (inactive)	> 100 µM (inactive)	> 100 µM (inactive)	> 100 µM (inactive)	> 100 µM (inactive)	> 100 µM (inactive)	> 100 µM (inactive)	> 100 µM (inactive)	> 100 µM (inactive)	> 100 µM (inactive)	> 100 µM (inactive)	> 100 µM (inactive)	> 100 µM (inactive)	> 100 µM (inactive)	
O=S(=O)(O)c1cc(S(=O)(=O)O)c2c(Nc3ccnc4ccccc34)ccc(S(=O)(=O)O)c2c1	> 100 µM (inactive)	> 100 µM (inactive)	> 100 µM (inactive)	> 100 µM (inactive)	> 100 µM (inactive)	> 100 µM (inactive)	> 100 µM (inactive)	> 100 µM (inactive)	> 100 µM (inactive)	> 100 µM (inactive)	> 100 µM (inactive)	> 100 µM (inactive)	> 100 µM (inactive)	> 100 µM (inactive)	> 100 µM (inactive)	> 100 µM (inactive)	> 100 µM (inactive)	> 100 µM (inactive)	> 100 µM (inactive)	
COc1ccc2c(c1)c(=O)c1c(NCCN(C)C)ccc3c(=O)n(CCN(C)C)c(=O)n2c31	0.206 µM (active)	0.29 µM (active)	0.0367 µM (active)	0.372 µM (active)	0.0762 µM (active)	0.173 µM (active)	< 0.01 µM (active)	0.0298 µM (active)	0.166 µM (active)	0.109 µM (active)	0.764 µM (active)	0.117 µM (active)	0.163 µM (active)	0.0783 µM (active)	0.211 µM (active)	0.0293 µM (active)	0.0138 µM (active)	0.178 µM (active)	0.124 µM (active)	
Cc1c(CCCl)c(N=[N+]=[N-])n2c(nc3ccccc32)c1C#N	2.77 µM (inactive)	1.45 µM (inactive)	2.12 µM (inactive)	0.839 µM (active)	0.163 µM (active)	1.46 µM (inactive)	0.236 µM (active)	1.71 µM (inactive)	1.6 µM (inactive)	1.69 µM (inactive)	0.867 µM (active)	1.43 µM (inactive)	1.82 µM (inactive)	2.17 µM (inactive)	1.64 µM (inactive)	1.07 µM (active)	1.22 µM (inactive)	0.986 µM (active)	1.87 µM (inactive)	
Cc1nc2ccccc2c(=O)n1/N=C(\N=N\c1cc(Cl)ccc1Cl)c1ccccc1	29 µM (inactive)	41 µM (inactive)	71 µM (inactive)	> 100 µM (inactive)	29.9 µM (inactive)	16.1 µM (inactive)	48.6 µM (inactive)	> 54.2 µM (inactive)	17.4 µM (inactive)	26.6 µM (inactive)	38.6 µM (inactive)	21.3 µM (inactive)	43.1 µM (inactive)	27.1 µM (inactive)	> 94.2 µM (inactive)	61.1 µM (inactive)	> 84.9 µM (inactive)	74 µM (inactive)	20.7 µM (inactive)	
CNc1nc(OC)c2c(n1)n(C)c[n+]2C [HETEROMINE B]	> 100 µM (inactive)	> 100 µM (inactive)	73.8 µM (inactive)	> 100 µM (inactive)	31.7 µM (inactive)	> 100 µM (inactive)	> 100 µM (inactive)	> 100 µM (inactive)	> 100 µM (inactive)	> 100 µM (inactive)	> 100 µM (inactive)	> 100 µM (inactive)	> 100 µM (inactive)	45.7 µM (inactive)	> 100 µM (inactive)	> 100 µM (inactive)	> 100 µM (inactive)	31.6 µM (inactive)	> 100 µM (inactive)	
CC(C)(O)[C@@H]1CCC(C)([C@H]2[C@@H](O)CC3(C)C4CC(OC5OC(CO)C(O)C(O)C5O)C5C(C)(C)[C@@H](OC6OCC(O)C(O)C6O)CC[C@@]56C[C@@]46CC[C@]23C)O1 (some centres undefined)	> 100 µM (inactive)	> 100 µM (inactive)	> 100 µM (inactive)		> 100 µM (inactive)	> 100 µM (inactive)	> 100 µM (inactive)	> 100 µM (inactive)	> 100 µM (inactive)				> 100 µM (inactive)	> 100 µM (inactive)		> 100 µM (inactive)	> 100 µM (inactive)		> 100 µM (inactive)	> 100 µM (inactive)
O=C(Cc1ccccc1)NN1C(=O)C(Cl)C1c1cc(Br)cc(Br)c1O (centres undefined)	8.34 µM (inactive)	17.7 µM (inactive)	15.9 µM (inactive)		3.8 µM (inactive)	16.2 µM (inactive)	3.05 µM (inactive)	21.3 µM (inactive)	11.5 µM (inactive)				14.7 µM (inactive)	13 µM (inactive)		21.3 µM (inactive)	6.35 µM (inactive)		7.76 µM (inactive)	24.4 µM (inactive)
